According to patent US9512139B2, “Conformationally constrained, fully synthetic macrocyclic compounds” (POLYPHOR AG, priority 2009, dated 2016):
pEC50: −log10 of the molar value.

Tests used:
[1] = target: T1, 5-hydroxytryptamine 2B (5-HT2B) Receptor (Homo sapiens, UniProt P41595); experiment: Ca2+ assay (FLIPR) for the GPCR 5-HT2B receptor, agonist and antagonist mode; format: cell-based
T1 construct: host or cells: Ca2+ optimized hematopoietic cell lines (rat)
Experimental: (§1) Ca^2+ Assays for the GPCRs Motilin Receptor, Prostaglandin F (FP) Receptor, 5-hydroxytryptamine 2B (5-HT2B) Receptor, and Purinoreceptor P2Y1
(§2) Assays were performed using on a FLIPR^TETRA fluorometric imaging plate reader (Molecular Devices) with ScreenWorks Version 2 (Molecular Devices) as device operating and data analysis software.
(§3) Dose dependent agonist and antagonist activities were determined. Percentage activation and percentage inhibition values were determined.
(§4) Percentage activation was determined upon initial addition of the sample compounds followed by 10 minutes incubation at 25° C. Following compound incubation, reference agonists were added at EC80 to determine percentage inhibition.
(§5) Reference agonists were purchased from reputable commercial vendors and prepared according to each ligand's specifications. All handling of ligands were done to ensure proper control throughout the experiments.
(§6) Example compounds were weighed on a Microbalance (Mettler MX5) and dissolved in 100% DMSO to a final concentration of 2.5 mM and subsequently diluted into the assay buffer.
(§7) The Assay buffer was a supplemented HBSS (Hank's Balanced Salt Solution). HBSS was supplemented with 20 mM HEPES (4-(2-hydroxyethyl)-piperazin-1-ethansulfonic acid) and 2.5 mM Probenecid (Sigma P8761).
(§8) GPCR assays were performed using Ca^2+ optimized hematopoietic cell lines (rat) with cultures never exceeding 90% confluency. […] After seeding, the assay plates were incubated for forty-five (45) minutes at room temperature. After room temperature incubation, the assay plates were incubated at 37° C. 5% CO2 for 24 hours prior to assaying.
(§9) All GPCR assays were performed using Fluo-8 Ca^2+ dye. Ca^2+ dye was prepared at 1× dye concentration in GPCR assay buffer. After 24 hours of incubation, cells were washed with GPCR assay buffer, and then Ca^2+-dye (100 μL/well) was added.
(§10) The plates were incubated for 90 minutes at 30° C. 5% CO2 prior to FLIPR assay.
(§11) Compound plates were prepared to add 50 μL/well during the agonist assay mode. During the FLIPR assay, 50 μL/well from the compound plate was diluted 3-fold into the existing 100 μL/well from the dye loading step. Therefore all compounds were prepared as 3× the final concentration desired in the assay.
(§12) After completion of the first single addition assay run, assay plate was removed from the FLIPR Tetra and placed at 25° C. for seven (7) minutes before antagonist assay.
(§13) Using the EC80 values determined during the agonist assay, all pre-incubated sample compound and reference antagonist (if applicable) wells were stimulated at the EC80 of the reference agonist. As reference ligands for the first three assays their obvious natural ligands motilin, prostaglandin F2α, and serotonin (5-HT, 5-Hydroxytryptamine) were used; and for the P2Y1 assay 2MeSATP (2-methyl-thio-adeno-sine 5′-triphosphate, i.e. (2R,3S,4R)-5-(6-amino-2-methylsulfanyl-purin-9-yl)-3,4-dihydroxy-tetrahydrofuran-2-yl]methyl (hydroxy-phosphonooxy-phosphoryl)hydrogen phosphate) was applied.
(§14) After the addition of the reference agonist fluorescence was monitored for 180 sec using FLIPR Tetra.
(§15) Data Analysis and Results:
(§16) From the FLIPR data, with negative control correction enabled, the maximum statistic for each well was exported and percentage activation relative to Emax control was calculated.

in vitro [2] = format: in vitro ADME, human; conditions: human, plasma; for Plasma Stability T½ [min] hum / Plasma Stability 240 min hum [% remain.]: 10 µM; for Plasma Stability 240 min hum [% remain.]: 4 h
Experimental: Example compounds were dissolved in DMSO/H2O 90:10 to a final concentration of 10 mM for plasma stability determination and metabolic stability determination.
Human plasma (3-5 donors, Blutspendedienst SRK, Basel) and CD-1 mouse plasma (mixed gender pool >50 animals, Innovative Research, CA, USA) are both sodium citrate stabilized. The assay is performed in triplicates at 10 μM compound concentration and 37° C. Samples are taken at 0, 15, 60, and 240 minutes and stopped by precipitation with 2 volumes of acetonitrile. The supernatant is collected, evaporated and reconstituted in a 5% acetonitrile solution to be analyzed by HPLC/MS/MS. The resulting peak area counts are expressed in percent of the 0 value and used to determine the endpoint stability in % and the half life in minutes. In order to monitor assay integrity the degradation of propantheline is assayed with every experimental set.

in vitro [3] = format: in vitro ADME, mouse; conditions: both, CD-1, mouse, plasma, 10 µM; for Plasma Stability 240 min mouse [% remain.]: 4 h
[4] = Metabolic stability assay, human microsomes; format: in vitro ADME; conditions: human, microsomes; for half-life at 10 µM: both sexes; for Metabolic Stability 60 min hum [% remain.] / Metabolic Stability T½ [min] hum: both, 10 µM; for Metabolic Stability 60 min hum [% remain.]: 1 h
[5] = Metabolic stability assay, CD-1 mouse microsomes; format: in vitro ADME; conditions: CD-1, mouse, microsomes; for Metabolic Stability T½ [min] mouse / Metabolic Stability 60 min mouse [% remain.]: both, 10 µM; for Metabolic Stability 60 min mouse [% remain.]: 1 h
Motilin Receptor = target: T2, Motilin Receptor (Homo sapiens, UniProt O43193); experiment: Ca2+ assay (FLIPR) for the GPCR motilin receptor, agonist and antagonist mode; format: cell-based; conditions: antagonist mode
T2 construct: host or cells: Ca2+ optimized hematopoietic cell lines (rat)
T2 sequence (O43193 whole entry, species assumed): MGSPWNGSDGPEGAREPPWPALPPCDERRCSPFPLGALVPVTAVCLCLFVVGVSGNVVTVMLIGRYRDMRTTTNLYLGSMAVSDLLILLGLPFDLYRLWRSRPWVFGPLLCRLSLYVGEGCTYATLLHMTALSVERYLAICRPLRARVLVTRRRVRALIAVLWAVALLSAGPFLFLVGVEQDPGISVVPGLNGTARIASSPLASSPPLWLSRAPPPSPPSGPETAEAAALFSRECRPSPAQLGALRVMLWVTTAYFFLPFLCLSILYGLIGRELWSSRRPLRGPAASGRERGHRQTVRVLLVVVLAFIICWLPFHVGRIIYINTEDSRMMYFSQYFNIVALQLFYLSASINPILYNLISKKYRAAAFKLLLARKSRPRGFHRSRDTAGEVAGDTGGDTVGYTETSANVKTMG
Experimental: as §1, §2, §3, §4, §5, §6, §7, §8, §9, §10, §11, §12, §13, §14, §15, §16

[6] = target: T3, Prostaglandin F (FP) Receptor (Homo sapiens, UniProt P43088); experiment: Ca2+ assay (FLIPR) for the GPCR prostaglandin F (FP) receptor, agonist and antagonist mode; format: cell-based; conditions: 10 μM
T3 construct: host or cells: Ca2+ optimized hematopoietic cell lines (rat)
T3 sequence (P43088 whole entry): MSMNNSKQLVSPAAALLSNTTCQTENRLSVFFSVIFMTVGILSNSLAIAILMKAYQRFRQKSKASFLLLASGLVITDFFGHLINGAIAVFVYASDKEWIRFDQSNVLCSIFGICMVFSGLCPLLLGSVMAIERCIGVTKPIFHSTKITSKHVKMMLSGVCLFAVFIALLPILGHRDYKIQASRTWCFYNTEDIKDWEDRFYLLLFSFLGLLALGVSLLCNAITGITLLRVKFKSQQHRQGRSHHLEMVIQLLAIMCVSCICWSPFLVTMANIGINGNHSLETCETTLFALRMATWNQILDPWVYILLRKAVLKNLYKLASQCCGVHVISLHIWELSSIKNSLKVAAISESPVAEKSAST
In short: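 Ca2+-optimized rat hematopoietic cells carrying the receptor were loaded with Fluo-8 in HBSS/20 mM HEPES/2.5 mM probenecid and read on FLIPR. Agonist mode: 10 min compound incubation at 25 °C, % activation relative to Emax. Antagonist mode: stimulation at EC80 of the reference agonist (prostaglandin F2α for FP, 2MeSATP for P2Y1), fluorescence monitored 180 s.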

[7] = Plasma stability assay, rat plasma (values in parentheses); format: in vitro ADME; conditions: value in parentheses
[8] = Metabolic stability assay, rat microsomes (values in parentheses); format: in vitro ADME; conditions: value in parentheses
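For Plasma Stability 240 min mouse [% remain.] in this document: sodium citrate stabilized mouse plasma, parent compound quantified by HPLC/MS/MS relative to its peak area at time zero, run in triplicate.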
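For Plasma Stability T½ [min] mouse in this document: sodium citrate stabilized mouse plasma, parent compound quantified by HPLC/MS/MS relative to its peak area at time zero, run in triplicate.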

T1 sequence (P41595 whole entry, species assumed): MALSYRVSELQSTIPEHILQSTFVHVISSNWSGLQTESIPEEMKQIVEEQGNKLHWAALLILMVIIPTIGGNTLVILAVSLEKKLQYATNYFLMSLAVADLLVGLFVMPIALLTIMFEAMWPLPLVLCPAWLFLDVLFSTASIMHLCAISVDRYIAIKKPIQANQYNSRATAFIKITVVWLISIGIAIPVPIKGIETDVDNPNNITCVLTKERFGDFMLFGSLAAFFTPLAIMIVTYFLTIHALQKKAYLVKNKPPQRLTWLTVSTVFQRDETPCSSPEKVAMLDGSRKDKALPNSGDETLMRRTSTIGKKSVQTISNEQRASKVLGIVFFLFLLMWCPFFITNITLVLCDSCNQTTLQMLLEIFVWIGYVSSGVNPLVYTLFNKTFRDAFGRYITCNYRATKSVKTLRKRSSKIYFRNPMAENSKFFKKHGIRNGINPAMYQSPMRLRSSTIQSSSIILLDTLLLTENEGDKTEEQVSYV

SMILES	pEC50 [1]	Agonist activity [% activation at 12.5 μM] [1]	Plasma Stability T½ [min] hum (in vitro [2])	Plasma Stability 240 min hum [% remain.] (in vitro [2])	Plasma Stability T½ [min] mouse (in vitro [3])	Plasma Stability 240 min mouse [% remain.] (in vitro [3])	half-life at 10 µM [4]	Metabolic Stability 60 min hum [% remain.] [4]	Metabolic Stability T½ [min] mouse [5]	Metabolic Stability 60 min mouse [% remain.] [5]	IC50 (Motilin Receptor)	inhibition at 10 µM (Motilin Receptor; at 10 μM)	inhibition at 10 µM [6]	half-life at 10 µM ([5]; both sexes)	Metabolic Stability T½ [min] hum [4]	Plasma Stability 240 min (rat) [% remain.] [7]	Plasma Stability T½ [min] (rat) [7]	Metabolic Stability 60 min (rat) [% remain.] [8]	Metabolic Stability T½ [min] (rat) [8]	half-life at 10 µM (in vitro [2])
CC(=O)N[C@H]1C[C@H]2COc3ccc(F)cc3C(=O)N(C)[C@H](C(=O)NCCc3c[nH]c4ccccc34)CCC(=O)N(C)CC(=O)N2C1 [Ex. 9, (2S,11S,19aS)-2-(acetylamino)-15-fluoro-N-[2-(1H-indol-3-yl)ethyl]-7,12-dimethyl-5,8,13-trioxo-2,3,6,7,8,9,10,11,12,13,19,19a-dodecahydro-1H,5H-pyrrolo[2,1-c] [1,4,7,12]benzoxatriazacyclopentadecine-11-carboxamide]	4.92	48%	> 240 min	99 % remain.	> 240 min	93 % remain.	0.533 h	20 % remain.	> 60 min	80 % remain.										
CN1CC(=O)N2C[C@@H](NC(=O)Cc3c[nH]c4ccccc34)C[C@H]2COc2ccc(F)cc2C(=O)N(C)[C@H](C(=O)NCCc2c[nH]c3ccccc23)CCC1=O [Ex. 12, (2S,11S,19aS)-15-fluoro-2-{[2-(1H-indol-3-yl)acetyl]amino}-N-[2-(1H-indol-3-yl)ethyl]-7,12-dimethyl-5,8,13-trioxo-2,3,6,7,8,9,10,11,12,13, 19,19a-dodecahydro-1H,5H-pyrrolo[2,1-c] [1,4,7,12]benzoxatriazacyclopentadecine-11-carboxamide]	5.48	36%	> 240 min	99 % remain.	> 240 min	100 % remain.	0.283 h	7 % remain.		33 % remain.	2.7 µM	95%	44%	0.583 h						
CN(C)CC(=O)N[C@H]1C[C@H]2COc3ccc(F)cc3C(=O)N(C)[C@H](C(=O)NCCc3c[nH]c4ccccc34)CCC(=O)N(C)CC(=O)N2C1 [Ex. 16, (2S,11S,19aS)-2-{[2-(dimethylamino)acetyl]amino}-15-fluoro-N-[2-(1H-indol-3-yl)ethyl]-7,12-dimethyl-5,8,13-trioxo-2,3,6,7,8,9,10,11, 12,13,19,19a-dodecahydro-1H,5H-pyrrolo [2,1-c] [1,4,7,12]benzoxatriazacyclopentadecine-11-carboxamide]	5.18	45%	> 240 min	95 % remain.	> 240 min	97 % remain.	0.633 h	31 % remain.	> 60 min	79 % remain.										
CN1CC(=O)N2C[C@@H](NC(=O)OC(C)(C)C)C[C@H]2COc2ccc(F)cc2C(=O)N(C)[C@H](C(=O)NCCc2c[nH]c3ccccc23)CCC1=O [Ex. 30, tert-butyl N-[(2S,11S,19aS)-15-fluoro-11-({[2-(1H-indol-3-yl)ethyl]amino}carbonyl)-7,12-dimethyl-5,8,13-trioxo-2,3,6,7,8,9,10,11,12,13,19,19a-dodecahydro-1H,5H-pyrrolo[2,1-c] [1,4,7,12]benzoxatriazacyclopentadecin-2-yl]carbamate]	5.48	48%	> 240 min	85 % remain.	> 240 min	100 % remain.	0.367 h	2 % remain.	> 60 min	55 % remain.										
CN(C)CCNC(=O)[C@@H]1COCC(=O)N2C[C@@H](NC(=O)Cc3ccc4ccccc4c3)C[C@H]2COc2cccc(c2)C(=O)N1C [Ex. 374, (4S,6S,13S)-N-[2-(dimethylamino)ethyl]-14-methyl-6-{[2-(2-naphthyl)acetyl]amino}-9,15-dioxo-2,11-dioxa-8,14-diazatricyclo[14.3.1.0^4,8]icosa-1(20),16,18-triene-13-carboxamide]			> 240 min	57 % remain.				61 % remain.	> 60 min	94 % remain.					> 60 min	(82) % remain.	(240) min	90 % remain.	60 (60) min	
COCCNC(=O)[C@@H]1COCC(=O)N2C[C@@H](NCC(C)C)C[C@H]2COc2cccc(c2)C(=O)N1C [Ex. 376, (4S,6S,13S)-6-(isobutylamino)-N-(2-methoxyethyl)-14-methyl-9,15-dioxo-2,11-dioxa-8,14-diazatricyclo[14.3.1.0^4,8]icosa-1(20),16,18-triene-13-carboxamide]			> 240 min	90 % remain.				79 % remain.	> 60 min	91 % remain.					> 60 min	(89) % remain.	(240) min	78 % remain.	60 (60) min	
COCCNC(=O)[C@@H]1COCC(=O)N2C[C@@H](N3CCN(C)CC3)C[C@H]2COc2cccc(c2)C(=O)N1C [Ex. 377, (4S,6S,13S)-N-(2-methoxyethyl)-14-methyl-6-(4-methylpiperazino)-9,15-dioxo-2,11-dioxa-8,14-diazatricyclo[14.3.1.0^4,8]icosa-1(20),16,18-triene-13-carboxamide]			> 240 min	95 % remain.				72 % remain.	> 60 min	86 % remain.					> 60 min	(100) % remain.	(240) min	97 % remain.	60 (60) min	
COCCNC(=O)[C@@H]1COCC(=O)N2C[C@@H](N3CCN(Cc4ccccc4)CC3)C[C@H]2COc2cccc(c2)C(=O)N1C [Ex. 378, (4S,6S,13S)-6-(4-benzylpiperazino)-N-(2-methoxyethyl)-14-methyl-9,15-dioxo-2,11-dioxa-8,14-diazatricyclo[14.3.1.0^4,8]icosa-1(20),16,18-triene-13-carboxamide]				48 % remain.				65 % remain.	> 60 min	87 % remain.					> 60 min	(100) % remain.	(240) min	72 % remain.	60 (60) min	4 h
